According to PMC9296036, “A peptide interfering with the dimerization of oncogenic KITENIN protein and its stability suppresses colorectal tumour progression” (Clinical and Translational Medicine, 2022):
Ends that are not written are not given here.

Molecular target: T1, KITENIN homodimer (Homo sapiens, UniProt Q8TAA9)
T1 construct: Lysates of 293T cells expressing full‐length KITENIN‐myc; expressed in transfected cells; host or cells: Caco2
T1 sequence (Q8TAA9 1-524): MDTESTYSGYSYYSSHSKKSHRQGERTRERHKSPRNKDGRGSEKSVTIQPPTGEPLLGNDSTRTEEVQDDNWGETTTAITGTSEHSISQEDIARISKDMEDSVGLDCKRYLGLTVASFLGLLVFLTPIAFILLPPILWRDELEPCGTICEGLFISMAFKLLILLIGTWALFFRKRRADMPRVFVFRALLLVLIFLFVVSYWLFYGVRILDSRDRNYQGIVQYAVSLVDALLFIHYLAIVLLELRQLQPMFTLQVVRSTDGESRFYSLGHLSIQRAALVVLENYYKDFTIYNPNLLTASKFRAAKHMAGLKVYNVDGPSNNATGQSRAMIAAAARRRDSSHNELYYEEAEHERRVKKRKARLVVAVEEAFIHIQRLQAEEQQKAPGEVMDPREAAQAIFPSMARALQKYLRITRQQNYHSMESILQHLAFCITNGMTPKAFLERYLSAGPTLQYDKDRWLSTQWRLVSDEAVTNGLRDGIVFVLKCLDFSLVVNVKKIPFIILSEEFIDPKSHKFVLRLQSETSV
Assay: KITENIN homodimerization in Caco2 cells co-expressing KITENIN-V5/Myc (co-immunoprecipitation)
Format: cell-based
Text: Antibodies against the following proteins were obtained from the indicated suppliers: Na^+/K^+ ATPase, GFP and tubulin (Santa Cruz Biotechnology); c‐Jun, p‐c‐Jun, ERK, p‐ERK, c‐MET, p‐c‐MET and GST (Cell Signaling Technology); V5, Myc (MBL); HA and β‐actin (Sigma); KITENIN (Atlas); His and RACK1, LC3, p62, Myo10, and eukaryotic elongation factor 2 (eEF2) (Abcam). They were used with appropriate secondary antibodies (Thermo). For transient transfection analyses, Caco2, HCT116 and 293T cells were transfected with various plasmids and harvested for immunoblot analysis 48 h after transfection. For most assays using stable cell lines, mixed polyclonal cells were used to exclude clonal variation. […]
FIGURE 2 KAI1 C‐terminal interacting tetraspanin (KITENIN) dimerization‐interfering peptide (KDIP) suppresses KITENIN‐induced enhanced cell invasion through the inhibition of the homodimerization of KITENIN. […] After 48 h of treatment, KITENIN transcripts in cells were analysed by the 2^−ΔΔ ^CT method using Q‐PCR. […] Caco2 cells were co‐transfected with KITENIN‐V5/Myc and treated with or without KDIP or scrambled peptide (scr) and were immunoprecipitated with anti‐V5 antibody and detected by indicated antibodies. Numerals indicated a quantification of the MYC bands normalized to the corresponding V5 bands (left panel). […] Numerals indicated a quantification of the bands observed (left panel). […]

YARVRRRGPRRWRLVSDEAV [KDIP]
inhibition of dimerization and cell invasion caused by KITENIN overexpression, rank among the 7 peptides of the 449-487 region (Caco2 cells co-expressing KITENIN-Myc and KITENIN-V5, co-IP and invasion assay): most effective | homodimerization of KITENIN in cells (in words) (Caco2 cells co-transfected with KITENIN-V5/Myc, co-IP): reduced
